Experimental data published in patent publication US6486151B2, “N-oxides of heterocyclic esters, amides, thioesters, and ketones” (GPI NIL Holdings Inc., priority 1997, dated 2002).

Tests used:
[1] = Liver microsomal assay (model of first pass metabolism); type: in vitro ADME, mouse
Description: (§1) In studies to directly asses the rate of metabolism of N-oxides, a mouse liver microsomal assay was used as described below to model first pass metabolism.
Liver microsomes from various species were purchased from a commercial supplier. The microsomes are characterized prior to shipment. The reaction mixture contained microsomes, 5 μM MgCl2, 1 mM NADP, 4 mM glucose-6-phosphate (G-6-P), and 1 unit/4 mL glucose-6-phosphate dehydrogenase (G-6-P DH). The final microsomal protein concentration for all studies was 0.2 mg/mL. Incubations were carried out for 1 hour in a shaking water bath (37° C.). The reaction was terminated by removing an aliquot from the reaction mixture and placing it in a tube with an equal volume of acetonitrile and the bioanalytical internal standard. The results of these experiments are presented as compound half-lives (t1/2) in Table II.

[2] = target: FKBP12 (Homo sapiens, UniProt P62942); assay: Ki test procedure: inhibition of peptidyl-prolyl isomerase (rotamase) activity, chymotrypsin-coupled assay; type: biochemical; settings: FKBP, substrate N-succinyl-Ala-Ala-Pro-Phe-p-nitroanilide; read-out: Ki (apparent Ki, rotamase inhibition)
Source text: As discussed above, the compounds of the present invention have an affinity for the FK506 binding protein, particularly FKBP12. The inhibition of the prolyl peptidyl cis-trans isomerase activity of FKBP may be measured as an indicator of this affinity.
Inhibition of the peptidyl-prolyl isomerase (rotamase) activity of the inventive compounds can be evaluated by known methods described in the literature (Harding, et al., Nature, 1989, 341 :758-760; Holt et al. J. Am. Chem. Soc., 115:9923-91938). The cis-trans isomerization of an alanine-proline bond in a model substrate, N-succinyl-Ala-Ala-Pro-Phe-p-nitroanilide, is monitored spectrophotometrically in a chymotrypsin-coupled assay, which releases para-nitroanilide from the trans form of the substrate. The inhibition of this reaction caused by the addition of different concentrations of inhibitor is determined, and the data is analyzed as a change in first-order rate constant as a function of inhibitor concentration to yield the apparent Ki values. […]
The absorbance at 390 nm versus time is monitored for 90 seconds using a spectrophotometer and the rate constants are determined from the absorbance versus time data files. […]

[3] = system: rabbit liver esterase; assay: Esterase activity: degradation by purified rabbit liver esterase; type: in vitro ADME; settings: for de-esterification by purified esterase (in words): purified esterification enzyme in vitro; for esterase degradation (rate of enzymatic degradation): purified rabbit liver esterase, 0.05 M Tris buffer pH 7.5, 2 hours
Description: as §1
Purified rabbit liver esterase was purchased from Sigma. Five (5) units of enzyme were placed in 2 mL of 0.05 M Tris buffer (pH 7.5). Incubations were performed for 2 hours. The reaction was terminated by removing an aliquot from the reaction mixture and placing it in a tube with an equal volume of acetonitrile and the bioanalytical internal standard. The results of these experiments are presented in Table II as rates of enzymatic degradation of the compounds.

[4] = system: MPTP lesioning of dopaminergic neurons in mice; assay: MPTP model of Parkinson's Disease: striatal TH innervation density; type: in vivo; settings: MPTP 30 mg/kg i.p. 5 days, test compound 4 mg/kg s.c., FIG. 1
Description: FIG. 1 is a bar graph showing Protection of Striatal TH Innervation Density from MPTP-toxicity by Concurrent Drug Dosing.
MPTP lesioning of dopaminergic neurons in mice is used as an animal model of Parkinson's Disease. Four week old male CD1 white mice are dosed i.p. with 30 mg/kg of MPTP for 5 days. Test compounds (4 mg/kg), or vehicle, are administered s.c. along with the MPTP for 5 days, as well as for an additional five days following cessation of MPTP treatment. At 18 days following MPTP treatment, the animals are sacrificed and the striata dissected and perfusion-fixed. Immunostaining is performed on sagittal and coronal brain sections using anti-tyrosine hydroxylase […] to quantitative survival and recovery of dopaminergic neurons. In animals treated MPTP and vehicle, a substantial loss of functional dopaminergic terminals is observed as compared to non-lesioned animals. Lesioned animals receiving test compounds show a significant recovery of TH-stained dopaminergic neurons. This model presents quantitation for the recovery of TH-positive dopaminergic neurons in the striatum of animals receiving of animals receiving the compounds of the present invention. Data for representative control and lesioned animals not receiving the test drugs is also presented against the data from the animals receiving the compounds of the present invention. […]

[5] = system: chick dorsal root ganglia; assay: Chick dorsal root ganglion cultures and neurite growth; type: cell-based; settings: Gallus gallus; chick embryo DRG explants, 48 hours after drug treatment; read-out: ED50 (neurite outgrowth)
Description: Dorsal root ganglia were dissected from chick embryos of ten day gestation. Whole ganglion explants were cultured on thin layer Matrigel-coated 12 well plates with Liebovitz L15 plus high glucose media supplemented with 2 mM glutamine and 10% fetal calf serum, and also containing 10 μM cytosine β-D arabinofuranoside (Ara C) at 37° C. in an environment containing 5% CO2. Twenty-four hours later, […] Forty-eight hours after drug treatment, the ganglia were visualized under phase contrast or Hoffman Modulation contrast with a Zeiss Axiovert inverted microscope. Photomicrographs of the explants were made, and neurite outgrowth was quantified. Neurites longer than the DRG diameter were counted as positive, with total number of neurites quantitated per each experimental condition. Three to four DRGs are cultured per well, and each treatment was performed in duplicate.

Sequence of FKBP12 (P62942 whole entry): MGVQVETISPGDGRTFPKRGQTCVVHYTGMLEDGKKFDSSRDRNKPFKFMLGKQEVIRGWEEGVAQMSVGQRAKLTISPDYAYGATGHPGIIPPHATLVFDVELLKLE

half-life ([1]; mouse liver microsomes, 0.2 mg/mL protein, 37° C., 1 hour incubation, read-out: t1/2 (compound half-life in microsomal assay)) [min] | SMILES | half-life compared with parent compound (in words) ([1]; mouse liver microsomal assay) | t1/2 (compound half-life in microsomal assay) ([1]; mouse liver microsomes, 0.2 mg/mL protein, 37° C., 1 hour incubation) [min] | Ki [2] [nM] | de-esterification by purified esterase (in words) [3] | esterase degradation (rate of enzymatic degradation) [3] [pmol/min/mg protein] | protection / recovery of striatal TH-positive dopaminergic innervation (in words) [4] | EC50 [5] [nM]
– | CCC(C)(C)C(=O)C(=O)N1CCC[C@H]1C(=O)OCCCc1ccc[n+]([O-])c1 [Example 1, 3-(3-Pyridyl)-1-propyl (2S)-1-(3,3-Dimethyl-1,2-dioxopentyl) -2-pyrrolidinecarboxylate, N-oxide] | significantly longer half-life than the parent compound | 42.8 | 225 | limited de-esterification | 367 | more potent in this in vivo model of neurodegeneration | –
8.1 | CCC(C)(C)C(=O)C(=O)N1CCC[C@H]1C(=O)OCCCc1cccnc1 [Parent, 3-(3-Pyridyl)-1-propyl (2S)-1-(3,3-Dimethyl-1,2-dioxopentyl)-2-pyrrolidinecarboxylate, reference compound] | – | – | – | significant degradation | 7521 | – | 0.05
